Values of other authors, collected in patent publication US7713351B2, “Method for crystallization of proteins using polysaccharides” (Macrocrystal Oy, priority 2004, dated 2010).

Conditions: room temperature; CRC Handbook of Chemistry and Physics

Compound: OCC(O)CO [glycerol]
- Viscosity: 934 mPa s
